Data from US20240082212A1, “USE OF MDMA FOR TREATMENT OF STRESS-RELATED DISORDERS” (priority 2022, published 2024).
“Also recorded” adds a separate entry of the source.

Legend:
CD (Sprague Dawley) rats = experiment: Rat telemetry: heart rate, blood pressure, body temperature, activity after cumulative SC dosing; assay type: in vivo
From the text: Methods. A total of 42 adult male CD® (Sprague Dawley) rats (Charles River Laboratories) were surgically implanted with DSI radiotelemetry devices by personnel at Charles River Laboratories Raleigh, NC, per their test site SOPs. Telemetry devices supported continuous recording of temperature, activity, blood pressure and heart rate. Telemeterized rats were shipped to the Charles River Laboratories testing facility (Mattawan, MI) and acclimated to the environment for at least 1 week prior to experimentation. Animals were pair-housed in solid bottom cages with nonaromatic bedding. On the dosing day, animals were singly housed and then returned to the paired cohort following the dosing/telemetry recording phase. Diet (Lab Diet® Certified Rodent Diet #5CR4) and tap water via an automatic water system were available ad libitum, except during designated procedures. Temperature and humidity were maintained according to the Testing Facility SOP. Animals were randomized into treatment groups using a standard, by weight, measured value randomization procedure. Body weight was determined for each rat prior to dosing.
As illustrated in the Table, a total of 36 rats were included in the study. The vehicle and 2 test article doses were administered in a volume of 1 mL/kg to each of 3 groups of n=12 telemeterized rats via subcutaneous injection four times on a given day, followed by neurobehavioral evaluations. This series was repeated 3 times on study. Each group received all 3 dose levels of the applicable test or control article in ascending order with a 1-week washout between dose levels.
Mortality/cage side clinical observations were conducted for all study animals at least twice daily beginning upon receipt through termination, except on days of receipt and termination where frequency was at least once daily. Detailed clinical observations were conducted for all study animals prior to each of the four cumulative doses in a series. Individual body weights were conducted for all study animals at transfer, prior to randomization, on the day of dosing on each of the 3 cycles of dosing. The body weights recorded at transfer and prior to randomization are not reported but are maintained in the study file. Veterinary care was available throughout the course of the study, and animals were examined by the veterinary staff as needed based on clinical signs or other changes. All animals were provided with HydroGel the night prior to their respective dosing days to potentially mitigate any animal welfare issues related to fluid loss/dehydration.
Telemetry monitoring was conducted for all animals 2 hours prior to dosing and through to 7.5 hours following the last (4th) cumulative dose of each series, which included continuous data collection of body temperature, activity, heart rate, and blood pressure (systolic, diastolic, and mean arterial) using telemetry.
The total period of time over which the statistical analyses were conducted encompassed the entire dosing period for all animals (i.e., Dose 1 through 7.5 hour post-4th dose) in an effort to draw conclusions regarding the effects of the dosing procedure and cumulative changes by allowing comparisons between the cumulative dosing periods. The following statistical analyses were performed for each analysis segment.
All time-series data comparisons conducted via statistical analysis are relative to the control treatment and are based on the LSMean values. Additionally, the change values used for the statistical analysis were calculated using a baseline of the 2 hours of pre-dose data, prior to the first compound injection of the series. The raw change values were analyzed.

C57BL/6 mice = experiment: Mouse extinction of conditioned fear assay; assay type: in vivo
Protocol: Racemic MDMA and R(−)-MDMA were evaluated for extinction of fear memory. The study utilized a mouse extinction of conditioned fear assay. A conditioned fear response is induced by pairing a previously neutral stimulus (conditioned stimulus; CS, such as an auditory tone) and aversive stimulus (unconditioned stimulus; US, such as […]). The fear response is later extinguished with repeated re-exposure to the CS in the absence of the US. This is a useful model for understanding learning and memory processes required for long-term recovery from PTSD, because it resembles exposure-based therapy, wherein repeated exposure to a fear-eliciting stimulus or memory promotes a reduced fear response to future reminders of the trauma. […] The current experiment investigated the ability of varying doses of R(−)-MDMA to facilitate extinction of conditioned fear in mice.
Standard rodent chow and water was available ad libitum.
The animal procedures were conducted according to established protocols approved by the IACUC committee and Melior Discovery Inc. Standard Operation Procedures (SOP). The behavioral procedure was adapted from Young et al., Transl Psychiatry 5, e634 (2015) with slight modifications. Mice were handled for two consecutive days for four minutes each day and injected with drug vehicles prior to the experiment. […] Fear conditioning was conducted in individual automated chambers built by Kinder Scientific (Poway, CA) that detect movement with infrared beams. On Day 1, Conditioning, each animal was placed in a chamber and presented a training session (Context A). An almond scent was present under the grid floor during the entire session. The training procedure consisted of a 2-minute habituation followed by a 30-second, 80 dB tone (CS). During the last 2 seconds of the tone, the animal received a 1 mA foot shock (US). This US-CS procedure occurred once for a total of one paired presentation of tone and shock. Freezing behavior (immobility) was recorded in 5-second intervals during the session. Percent baseline freezing behavior was determined in the 2-minute habituation period. After the session, animals were returned to their cages in the holding room. Animals were not manipulated on Day 2. On Day 3, Extinction Training, two days (48 hours) following fear conditioning, each animal was placed in Context B, in which the tactile and odor cues of the conditioning chambers were altered with a different (lemon) scent and black Plexiglas floor placed over the grid floor. Following a 2-minute acclimation period, the animal received four 30-second presentations of the CS (tone) in the absence of the US (foot shock), with a 45-second interval between presentations and 30 seconds of chamber consolidation. Immobility was recorded in 5-second intervals to measure baseline freezing response to the altered context, and freezing response to each tone/cue presentation. On Day 3, each animal was administered vehicle or racemic MDMA by intraperitoneal (IP) injection at 30 minutes prior, to the extinction training session. On Days 4, 8, and 13, Extinction Testing sessions, each animal was placed in Context B. Following a 2-minute acclimation period, each animal received four 30-second presentations of the CS (tone) in the absence of the US (foot shock), with a 45-second interval between presentations and 30 seconds of chamber consolidation. Immobility was recorded in 5-second intervals to measure baseline freezing response to the altered context, and freezing response to each tone/cue presentation.
Each animal in each treatment group received IP administration of vehicle or R(−)-MDMA or racemic MDMA at 30 minutes prior to extinction training on day 3. […] Injection volumes were 10 mL/kg. The study was run in 2 cohorts. Data were presented as mean±standard error of the mean of the percentage (%) of the session time spent freezing (absence of movement other than respiration) or activity counts during the 2-minute acclimation period.

[1] = telemetry, cumulative SC dosing, dose groups stated in the value
[2] = Days 8 and 13, single R-MDMA 30 mg/kg IP on Day 3

## CNC(C)Cc1ccc2c(c1)OCO2 (single isomer, unassigned) [R-MDMA, R(−)-3,4-methylenedioxymethamphetamine]
CD (Sprague Dawley) rats; 4 hourly SC injections during telemetry monitoring
  stepwise increases in blood pressure or heart rate with repeated doses: no stepwise increases in blood pressure or heart rate were observed
CD (Sprague Dawley) rats; 4 hourly SC injections, cumulative doses 5, 10, or 20 mg/kg/day
  hemodynamic parameters (systolic/diastolic/mean arterial blood pressures and heart rate): dose-dependent blood pressure-increasing effects
CD (Sprague Dawley) rats; R-MDMA 10 mg/kg/day, 4 hourly SC injections
  body temperature response: hypothermic response
CD (Sprague Dawley) rats; R-MDMA 20 mg/kg/day, 4 hourly SC injections
  body temperature response: hyperthermic response
CD (Sprague Dawley) rats; all cumulative doses (5, 10, or 20 mg/kg/day)
  activity (implanted telemetry devices): Activity-increasing effects
CD (Sprague Dawley) rats; by the end of telemetry monitoring (7.5 h after 4th dose)
  recovery of blood pressure effects: only test article examined which produced recoverable effects by the end of telemetry monitoring
CD (Sprague Dawley) rats; maximum change, R-MDMA and racemic MDMA 10, 20 mg/kg/day, S-MDMA 5, 10 mg/kg/day, 4 hourly SC injections
  heart rate increase: up to +23%
CD (Sprague Dawley) rats; overall mean magnitude of change, 4 hourly SC injections
  peak body temperatures: 38.6 °C
CD (Sprague Dawley) rats; [1]
  Rank Order Blood Pressures (Systolic, Diastolic, and Mean Arterial) Effects: R-MDMA (10 mg/kg/day) < S-MDMA (5 mg/kg/day) < Rac.-MDMA (10 mg/kg/day); also recorded: R-MDMA (20 mg/kg/day) < S-MDMA (10 mg/kg/day) < Rac-MDMA (20 mg/kg/day); also recorded: R-MDMA (0 mg/kg/day) < R-MDMA (10 mg/kg/day) < R-MDMA (20 mg/kg/day); also recorded: R-MDMA (10 mg/kg/day) < S-MDMA (10 mg/kg/day) < Rac-MDMA (20 mg/kg/day)
  Rank Order Body Temperature Effects: R-MDMA (10 mg/kg/day) < S-MDMA (5 mg/kg/day) < Rac.-MDMA (10 mg/kg/day); also recorded: R-MDMA (20 mg/kg/day) < S-MDMA (10 mg/kg/day) < Rac-MDMA (20 mg/kg/day); also recorded: R-MDMA (0 mg/kg/day) < R-MDMA (10 mg/kg/day) < R-MDMA (20 mg/kg/day); also recorded: R-MDMA (10 mg/kg/day) < S-MDMA (10 mg/kg/day) < Rac-MDMA (20 mg/kg/day)
  Rank Order General Activity Effects: R-MDMA (10 mg/kg/day) < S-MDMA (5 mg/kg/day) < Rac.-MDMA (10 mg/kg/day); also recorded: R-MDMA (20 mg/kg/day) < S-MDMA (10 mg/kg/day) < Rac-MDMA (20 mg/kg/day); also recorded: R-MDMA (0 mg/kg/day) < R-MDMA (10 mg/kg/day) < R-MDMA (20 mg/kg/day); also recorded: R-MDMA (10 mg/kg/day) < S-MDMA (10 mg/kg/day) < Rac-MDMA (20 mg/kg/day)
  Rank Order Heart Rate Measurement Effects: R-MDMA (10 mg/kg/day) < S-MDMA (5 mg/kg/day) < Rac.-MDMA (10 mg/kg/day); also recorded: R-MDMA (20 mg/kg/day) < S-MDMA (10 mg/kg/day) < Rac-MDMA (20 mg/kg/day); also recorded: R-MDMA (0 mg/kg/day) < R-MDMA (10 mg/kg/day) < R-MDMA (20 mg/kg/day); also recorded: R-MDMA (10 mg/kg/day) < S-MDMA (10 mg/kg/day) < Rac-MDMA (20 mg/kg/day)
C57BL/6 mice; Day 3 (extinction training, single IP dose 30 min prior), R-MDMA 17 and 30 mg/kg
  freezing vs vehicle: reduced freezing
C57BL/6 mice; Day 3, R-MDMA 10 mg/kg IP
  freezing vs vehicle: no significant effect on freezing
C57BL/6 mice; Day 3, all doses of R-MDMA (10, 17, 30 mg/kg IP)
  activity counts vs vehicle: Significantly increased activity counts
C57BL/6 mice; Day 4 (day after single dose), R-MDMA 10, 17 and 30 mg/kg IP
  freezing vs vehicle: significantly reduced freezing
C57BL/6 mice; Day 4, R-MDMA 10 mg/kg IP
  activity vs vehicle: without a significant increase in activity
C57BL/6 mice; Day 4, R-MDMA 30 mg/kg IP
  activity counts vs vehicle: significantly increased activity
C57BL/6 mice; Days 3, 4, 8, 13, R-MDMA 17 mg/kg IP on Day 3
  locomotor activity vs vehicle: significantly increased locomotor activity only on the day of administration
C57BL/6 mice; Days 8 and 13, single R-MDMA 17 mg/kg IP on Day 3
  freezing significantly reduced: but not on Days 8 and 13
C57BL/6 mice; [2]
  activity counts vs vehicle: significant increases in activity
  freezing vs vehicle: significantly reduced freezing
